Measurements taken from article PMC5824344 (ACS Chemical Biology, 2017).

Experiments:
[1] = tested on: DENV (serotype 2, strain 16681) in Huh7.5 cells; experiment: DENV Huh7.5 antiviral assay (infectious titer by plaque assay); format: cell-based, dengue virus; conditions: MOI 0.1, 48 h, titration of 4 or 50 µm of 3
Procedure: (§1) Supplemental Figure 3: Antiviral activity of 4 in human hepatoma Huh7.5 cell line.
(§2) (A) Huh7.5 cells were infected with DENV (serotype 2, strain 16681, multiplicity of infection = 0.1) and treated with a titration of ToP-DNJ 4 or 50 µm of tocopherol 3 for 48 h. Infectious virus titer was measured by plaque assay on LLC-MK2 cells. Counts were normalized to 100% for untreated samples.
(§3) DENV eﬀect at the concentrations tested. (B) Huh7.5 cells were infected with HCV (JFH-1, multiplicity of infection = 2) and treated with a titration of ToP-DNJ 4 or 50 µm tocopherol 3 for 96 h. Infectious virus titer was measured by TCID50 assay on […]
(§4) tested. In both panels, each data point represent the mean of triplicates, with error bars showing standard error of the mean (GraphPad Prism). […]
(§5) each well was scored as either positive (≥ 5 stained cells) or negative. TCID50 values were calculated according to the method of Reed and Muench.8 […]
(§6) The infectious DENV titres in supernatants collected were evaluated by plaque assay as described previously.9 Brieﬂy, LLC-MK2 cells were seeded in conﬂuent monolayers in a 12-well plate. Four 10-fold dilutions of each supernatant to be analyzed were prepared in minimum essential media (MEM, Gibco), supplemented with 100 µg mL−1 streptomycin, 100 U mL−1 penicillin and 10% (v/v) FCS. […]
(§7) After 1 d, plaques were observed and counted from the underside of the plate by eye. […]

[2] = design: method as in PMID 15522126; conditions: cited from earlier work
[3] = tested on: DENV2 strain 16681 in primary human MDMΦ; experiment: DENV primary MDMΦ antiviral assay (infectious titer by plaque assay); format: cell-based, dengue virus; conditions: dengue-infected MDMΦ, 7 donors
Procedure: each well was scored as either positive (≥ 5 stained cells) or negative. TCID50 values were calculated according to the method of Reed and Muench.8
5.7 DENV Primary MDMΦ Antiviral Assay
DENV2 strain 16681 (a gift from Prof. E. Gould, Centre for Ecology and Hydrology, Oxford, United Kingdom) was propagated in the C6/36 cell line. In the antiviral assay, MDMΦ cells (7 donors) were seeded in a 24-well plate at a density of 1× 10^6 cells/well in 1 mL of growth media. The cells were inoculated for 2 h with DENV2 16681 strain at an MOI of 1. […]
as §6, §7
18 healthy male BALB/c mice (8 – 12 weeks old) weighing between 20 and 35 g were procured from ACTREC, Mumbai, India. […] Temperature and humidity were recorded by an auto-controlled data logging system and maintained at 22± 3◦C and 55± 15% humidity, respectively. […]

[4] = tested on: HCV (JFH-1) in Huh7.5 cells; experiment: HCV antiviral assay in Huh7.5 cells (infectious titer by TCID50 assay); format: cell-based, hepatitis C virus; conditions: MOI 2, 96 h, titration of 4 or 50 µm of 3
Procedure: as §1, §2, §3, §4
Huh7.5 cells were seeded in a 96-well plate at a density of 5× 10^3 cells/well in 100 µL growth media. […] The supernatant was harvested, and infectious viral titre assessed immediately in the TCID50 assay.
Huh7.5 cells were seeded in a 96-well plate at a density of 2× 10^4 cells/well in 100 µL of growth media and incubated for 18 h. The supernatants to be evaluated were diluted 1:10 in growth media, and 7 serial half-log10 dilutions were subsequently prepared in the same media. […]
as §5

[5] = target: T1, Rat intestinal isomaltase (Rattus norvegicus, UniProt P23739); experiment: Inhibition of rat intestinal isomaltase (natural substrate, glucose release); format: biochemical; conditions: isolated enzyme in vitro; mean of three measurements; read-out: IC50, α-Glucosidase, Rat intestinal isomaltase
T1 construct: from tissue; host or cells: intestine of male Wistar rats, partially purified extract
T1 sequence (P23739 whole entry): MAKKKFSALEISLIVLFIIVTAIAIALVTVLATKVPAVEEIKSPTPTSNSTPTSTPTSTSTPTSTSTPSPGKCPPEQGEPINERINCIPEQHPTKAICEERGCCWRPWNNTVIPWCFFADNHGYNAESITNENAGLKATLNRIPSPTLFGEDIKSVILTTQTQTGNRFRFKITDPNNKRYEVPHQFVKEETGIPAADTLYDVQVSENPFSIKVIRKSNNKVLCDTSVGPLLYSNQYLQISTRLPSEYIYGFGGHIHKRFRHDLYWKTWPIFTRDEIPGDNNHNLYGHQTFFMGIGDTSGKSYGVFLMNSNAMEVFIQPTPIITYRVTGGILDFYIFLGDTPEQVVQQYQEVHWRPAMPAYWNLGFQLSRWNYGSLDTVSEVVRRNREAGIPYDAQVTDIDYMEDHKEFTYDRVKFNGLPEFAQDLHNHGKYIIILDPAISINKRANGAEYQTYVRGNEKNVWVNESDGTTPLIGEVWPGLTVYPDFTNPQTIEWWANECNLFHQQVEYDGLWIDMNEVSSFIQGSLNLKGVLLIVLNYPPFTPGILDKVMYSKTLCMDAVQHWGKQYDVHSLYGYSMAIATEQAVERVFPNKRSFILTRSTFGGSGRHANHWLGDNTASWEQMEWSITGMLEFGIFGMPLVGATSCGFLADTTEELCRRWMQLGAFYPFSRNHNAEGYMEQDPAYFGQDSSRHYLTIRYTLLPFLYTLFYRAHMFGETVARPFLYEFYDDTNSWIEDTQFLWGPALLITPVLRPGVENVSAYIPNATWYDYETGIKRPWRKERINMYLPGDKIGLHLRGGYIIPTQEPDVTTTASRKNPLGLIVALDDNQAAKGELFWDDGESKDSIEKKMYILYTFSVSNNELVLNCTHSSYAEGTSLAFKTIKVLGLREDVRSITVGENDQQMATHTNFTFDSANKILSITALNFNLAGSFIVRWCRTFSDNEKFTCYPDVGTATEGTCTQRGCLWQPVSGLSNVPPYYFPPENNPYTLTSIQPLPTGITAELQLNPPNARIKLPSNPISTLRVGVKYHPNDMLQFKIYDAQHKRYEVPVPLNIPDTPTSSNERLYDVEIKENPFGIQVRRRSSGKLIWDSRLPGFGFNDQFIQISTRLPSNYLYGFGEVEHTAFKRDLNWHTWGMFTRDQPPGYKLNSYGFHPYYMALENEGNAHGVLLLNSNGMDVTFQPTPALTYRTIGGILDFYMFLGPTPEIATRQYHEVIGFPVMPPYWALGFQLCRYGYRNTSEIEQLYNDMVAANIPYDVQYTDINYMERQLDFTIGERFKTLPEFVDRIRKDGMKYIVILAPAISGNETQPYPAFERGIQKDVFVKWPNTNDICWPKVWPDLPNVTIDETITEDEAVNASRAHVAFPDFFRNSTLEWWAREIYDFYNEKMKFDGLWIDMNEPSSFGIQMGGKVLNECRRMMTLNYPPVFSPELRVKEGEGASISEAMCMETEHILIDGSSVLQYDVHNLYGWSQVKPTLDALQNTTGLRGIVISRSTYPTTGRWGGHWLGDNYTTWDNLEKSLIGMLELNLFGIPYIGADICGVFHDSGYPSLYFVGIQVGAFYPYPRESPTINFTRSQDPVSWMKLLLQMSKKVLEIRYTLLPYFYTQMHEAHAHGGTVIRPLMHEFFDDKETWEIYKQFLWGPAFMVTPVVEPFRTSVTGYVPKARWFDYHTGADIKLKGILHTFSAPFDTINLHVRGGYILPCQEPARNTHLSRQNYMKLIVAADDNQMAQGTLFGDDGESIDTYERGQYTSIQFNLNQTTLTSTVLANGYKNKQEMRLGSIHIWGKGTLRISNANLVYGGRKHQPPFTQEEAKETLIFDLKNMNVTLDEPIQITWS
Procedure: (§8) 4 Enzyme Inhibition Assays
(§9) All rat enzymes were isolated from 18-week-old, male Wistar rats, while human lysosomal α-glucosidase was obtained in commercially available form from Sanoﬁ Genzyme. Inhibition of isolated glucosidases was evaluated as described previously. 3 Brieﬂy, maltase, isomaltase, sucrase, and cellobiase were used as partially puriﬁed tissue extracts. Inhibition assays for each enzyme were performed with the respective natural substrate, and release of d-glucose measured by Glucose B-test (Wako Diagnostics). Assays of rat ER α-glucosidase II and human lysosomal α-glucosidase inhibition were conducted with α-p-nitrophenylglucoside as substrate; 400 mm Na2CO3 was added to quench these reactions, and the extent of hydrolysis was evaluated as absorbance at 400 nm by spectrophotometer.
(§10) ER α-glucosidase I inhibition assays were performed using anthranilic acid-labelled Glc3Man7GlcNAc2 as substrate. After terminating the reaction with acetonitrile, protein was removed by cen-trifugation through a 10 kDa molecular weight cut oﬀ ﬁlter. The amount of hydrolysis was then quantiﬁed by normal phase high performance liquid chromatography analysis of unreacted substrate and product (Glc2Man7GlcNAc2).4
(§11) ER α-glucosidase II inhibition assays using native-like substrates were performed using an-thranilic acid-labelled Glc2Man7GlcNAc2 as substrate. After terminating the reaction with acetonitrile, protein was removed by centrifugation through a 10 kDa molecular weight cut oﬀ ﬁlter. The amount of hydrolysis was then quantiﬁed by normal phase high performance liq-uid chromatography analysis of unreacted substrate and both products (Glc1Man7GlcNAc2

Rat intestinal maltase = experiment: Inhibition of rat intestinal maltase (natural substrate, glucose release); format: biochemical; conditions: isolated enzyme in vitro; mean of three measurements; read-out: IC50, α-Glucosidase, Rat intestinal maltase
Procedure: as §8, §9, §10, §11

[6] = target: T2, Rat liver ER α-glucosidase I (Rattus norvegicus, UniProt O88941); experiment: Inhibition of isolated rat liver ER α-glucosidase I (anthranilic acid-labelled Glc3Man7GlcNAc2 substrate, HPLC); format: biochemical; conditions: isolated enzyme in vitro; mean of three measurements
T2 construct: Rat liver ER, I; from tissue; host or cells: liver of male Wistar rats
T2 sequence (O88941 1-834): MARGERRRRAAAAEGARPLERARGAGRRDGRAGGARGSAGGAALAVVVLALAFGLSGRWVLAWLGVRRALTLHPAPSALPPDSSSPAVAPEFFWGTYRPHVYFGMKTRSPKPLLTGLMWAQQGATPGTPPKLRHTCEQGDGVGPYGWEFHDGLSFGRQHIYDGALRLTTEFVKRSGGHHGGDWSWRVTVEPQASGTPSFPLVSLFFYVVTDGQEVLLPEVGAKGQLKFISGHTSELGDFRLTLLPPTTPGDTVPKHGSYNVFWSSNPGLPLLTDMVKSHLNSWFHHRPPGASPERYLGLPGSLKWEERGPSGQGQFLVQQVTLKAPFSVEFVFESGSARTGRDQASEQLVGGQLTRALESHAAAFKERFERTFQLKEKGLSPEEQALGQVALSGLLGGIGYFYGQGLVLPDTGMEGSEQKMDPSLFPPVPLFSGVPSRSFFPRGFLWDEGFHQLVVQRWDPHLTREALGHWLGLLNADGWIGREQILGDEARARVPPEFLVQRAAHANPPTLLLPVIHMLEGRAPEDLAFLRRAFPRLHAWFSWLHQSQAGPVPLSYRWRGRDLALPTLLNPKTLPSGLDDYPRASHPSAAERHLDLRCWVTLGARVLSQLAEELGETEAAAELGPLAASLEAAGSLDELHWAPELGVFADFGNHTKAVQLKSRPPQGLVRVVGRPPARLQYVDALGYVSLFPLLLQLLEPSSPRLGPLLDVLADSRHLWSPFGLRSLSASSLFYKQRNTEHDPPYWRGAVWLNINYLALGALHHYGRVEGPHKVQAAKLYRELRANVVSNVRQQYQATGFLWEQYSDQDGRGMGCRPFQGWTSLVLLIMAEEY
Procedure: as §8, §9, §10, §11

[7] = target: T3, Rat liver ER α-glucosidase II (Rattus norvegicus, UniProt A0A8I6GFL3); experiment: Inhibition of isolated rat liver ER α-glucosidase II (α-p-nitrophenylglucoside substrate); format: biochemical; conditions: isolated enzyme in vitro; read-out: IC50 with regard to GluII
T3 construct: Rat liver ER, II; from tissue; host or cells: liver of male Wistar rats
T3 sequence (A0A8I6GFL3 33-944): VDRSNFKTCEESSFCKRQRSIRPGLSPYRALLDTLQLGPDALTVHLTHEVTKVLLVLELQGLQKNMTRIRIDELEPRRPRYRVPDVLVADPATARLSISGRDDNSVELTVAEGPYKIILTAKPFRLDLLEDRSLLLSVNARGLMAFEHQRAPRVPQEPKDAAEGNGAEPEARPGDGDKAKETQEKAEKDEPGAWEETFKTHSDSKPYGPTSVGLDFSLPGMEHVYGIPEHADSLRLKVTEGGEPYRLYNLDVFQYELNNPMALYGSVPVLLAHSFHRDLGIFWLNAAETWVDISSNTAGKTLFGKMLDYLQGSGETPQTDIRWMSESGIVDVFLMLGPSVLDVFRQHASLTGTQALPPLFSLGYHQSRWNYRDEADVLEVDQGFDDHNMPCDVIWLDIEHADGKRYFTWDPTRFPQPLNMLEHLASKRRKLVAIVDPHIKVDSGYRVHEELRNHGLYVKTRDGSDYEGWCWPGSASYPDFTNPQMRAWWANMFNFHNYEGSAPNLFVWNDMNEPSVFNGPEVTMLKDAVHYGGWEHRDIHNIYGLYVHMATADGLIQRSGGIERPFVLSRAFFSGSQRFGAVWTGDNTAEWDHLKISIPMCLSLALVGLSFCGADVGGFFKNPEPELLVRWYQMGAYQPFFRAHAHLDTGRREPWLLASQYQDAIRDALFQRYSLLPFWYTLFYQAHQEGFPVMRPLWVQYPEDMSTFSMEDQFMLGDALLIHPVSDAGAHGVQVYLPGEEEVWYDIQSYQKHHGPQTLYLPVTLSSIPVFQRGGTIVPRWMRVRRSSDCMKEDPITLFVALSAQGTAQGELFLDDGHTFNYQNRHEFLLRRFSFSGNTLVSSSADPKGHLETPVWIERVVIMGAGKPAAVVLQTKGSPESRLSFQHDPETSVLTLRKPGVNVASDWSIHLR
T3 sequence (A0A8I6ADW9 1-525 partner): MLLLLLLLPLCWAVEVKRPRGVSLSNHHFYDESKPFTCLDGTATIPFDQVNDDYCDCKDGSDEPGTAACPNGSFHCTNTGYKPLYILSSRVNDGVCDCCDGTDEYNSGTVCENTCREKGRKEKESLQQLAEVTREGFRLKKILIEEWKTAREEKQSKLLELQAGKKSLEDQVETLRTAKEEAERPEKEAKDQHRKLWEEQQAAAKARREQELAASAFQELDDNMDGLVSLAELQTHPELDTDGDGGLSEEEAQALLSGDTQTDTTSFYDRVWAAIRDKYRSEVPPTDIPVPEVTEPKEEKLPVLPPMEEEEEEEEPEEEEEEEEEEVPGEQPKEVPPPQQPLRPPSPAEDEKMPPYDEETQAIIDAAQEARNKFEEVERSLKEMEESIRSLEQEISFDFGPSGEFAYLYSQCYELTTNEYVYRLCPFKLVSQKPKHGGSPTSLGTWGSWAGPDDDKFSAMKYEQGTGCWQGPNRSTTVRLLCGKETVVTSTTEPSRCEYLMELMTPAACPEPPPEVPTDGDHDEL
Procedure: as §8, §9, §10, §11

IC50 [5] [µM] | IC50 (Rat intestinal maltase) [µM] | IC50 [6] [µM] | IC50 [7] [µM] | SMILES | anti-DENV effect (infectious virus titer) [1] | increase of plasma levels when consumed with a lipid-rich meal [2] [fold] | antiviral effect on infectious virus titer [3] | anti-HCV effect (infectious virus titer) [4]
– | – | – | – | Cc1c(C)c2c(c(C)c1O)CCC(C)(CCCC(C)CCCC(C)CCCC(C)C)O2 [Compound 3, D-(+)-α-tocopherol, reference compound] | Neither 4 nor 3 showed an anti- | 10 | no antiviral effect | Neither 4 nor 3 showed an anti-HCV eﬀect
0.79 | 0.16 | 2.2 | 16 | OC[C@H]1NC[C@H](O)[C@@H](O)[C@@H]1O [Compound 1, D-1-deoxynojirimycin, reference compound] | – | – | – | –
